The experiment concerns the target Mitogen-activated protein kinase 10 (Homo sapiens, UniProt P53779). Description: Inhibition of JNK3.
Sequence of Mitogen-activated protein kinase 10 (P53779 whole entry): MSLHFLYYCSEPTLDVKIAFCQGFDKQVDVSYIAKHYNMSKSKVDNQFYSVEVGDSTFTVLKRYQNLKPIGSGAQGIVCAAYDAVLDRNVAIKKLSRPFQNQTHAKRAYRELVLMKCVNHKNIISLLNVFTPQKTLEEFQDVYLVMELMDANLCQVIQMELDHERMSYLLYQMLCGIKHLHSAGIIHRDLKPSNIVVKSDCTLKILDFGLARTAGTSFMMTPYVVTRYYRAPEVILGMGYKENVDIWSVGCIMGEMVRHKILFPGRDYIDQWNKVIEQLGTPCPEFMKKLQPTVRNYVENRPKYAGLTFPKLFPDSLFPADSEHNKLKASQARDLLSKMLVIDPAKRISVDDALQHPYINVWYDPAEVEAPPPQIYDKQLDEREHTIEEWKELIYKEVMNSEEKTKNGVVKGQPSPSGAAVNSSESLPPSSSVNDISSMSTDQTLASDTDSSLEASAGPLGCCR
For `N#C/C(=C1/Nc2ccccc2S1)c1ccnc(NCCc2ccc(S(N)(=O)=O)cc2)n1`, the IC50 stood at 41 nM.
Molecule `NC1=CC=C2SN=C3c4ccccc4C(=O)C1C23` (stereo not given) yielded an IC50 of 400 nM.
`COc1ccc(CCNc2nccc(/C(C#N)=C3\Nc4ccccc4S3)n2)cc1` returned an IC50 of 3.1 nM.
`Oc1c2ccccc2c2c3c(cccc13)N=N2` [SP-600125] gave a concentration for half-maximal inhibition (IC50) of 190 nM.
`CCCn1c(C2CCN(C)CC2)nc(-c2ccc(Cl)c(Cl)c2)c1-c1ccnc(NC2CC2)n1` came in with a 50% inhibitory concentration (IC50) of 1.6 nM.

Broadly, the IC50 is the concentration that gives 50% inhibition. High values mean weaker potency in that assay, low ones greater potency in that assay.

Values taken from ChEMBL document CHEMBL1140628, “Assessing potency of c-Jun N-terminal kinase 3 (JNK3) inhibitors using 2D molecular descriptors and binary QSAR methodology” (Bioorg Med Chem, 2007).
